Literature values, collected in patent US8591947B2, “Dual controlled release dosage form” (Osmotica Kereskedelmi és Szolgáltató KFT, priority 2001, dated 2013).
Counter-ions that a name gives are not always drawn.

SMILES | Solubility of component in water (U.S.P. term)
Cc1nc2n(c(=O)c1CCN1CCC(c3noc4cc(F)ccc34)CC1)CCCC2 [risperidone] | practically insoluble
CCN(C)C(=O)Oc1cccc([C@H](C)N(C)C)c1 [rivastigmine hydrogen tartrate] | very soluble
CS(=O)(=O)c1ccc(C2=C(c3ccccc3)C(=O)OC2)cc1 [rofecoxib] | practically insoluble
CN(CCOc1ccc(CC2SC(=O)NC2=O)cc1)c1ccccn1 (stereo not shown) [rosiglitazone maleate] | soluble
OCc1cc(C(O)CNCCCCCCOCCCCc2ccccc2)ccc1O (stereo not shown) [salmeterol] | sparingly soluble
CN[C@H]1CC[C@@H](c2ccc(Cl)c(Cl)c2)c2ccccc21 [sertraline HCl] | slightly soluble
CCCc1nn(C)c2c(=O)[nH]c(-c3cc(S(=O)(=O)N4CCN(C)CC4)ccc3OCC)nc12 [sildenafil citrate] | slightly soluble
CNS(=O)(=O)Cc1ccc2[nH]cc(CCN(C)C)c2c1 [sumatriptan] | soluble
COc1cccc(C2(O)CCCCC2CN(C)C)c1 (stereo not shown) [tramadol HCl] | freely soluble
O=c1n(CCCN2CCN(c3cccc(Cl)c3)CC2)nc2ccccn12 [trazodone HCl] | sparingly soluble
